In patent US7129078B2, “DNA encoding androgen receptor fragment” (University of North Carolina at Chapel Hill, priority 1988, dated 2006):

Biological target: T1, steroid-binding domain of hAR (human androgen receptor) expressed from cDNA fragment (Homo sapiens, UniProt P10275)
T1 sequence (P10275 669-900 limits assumed): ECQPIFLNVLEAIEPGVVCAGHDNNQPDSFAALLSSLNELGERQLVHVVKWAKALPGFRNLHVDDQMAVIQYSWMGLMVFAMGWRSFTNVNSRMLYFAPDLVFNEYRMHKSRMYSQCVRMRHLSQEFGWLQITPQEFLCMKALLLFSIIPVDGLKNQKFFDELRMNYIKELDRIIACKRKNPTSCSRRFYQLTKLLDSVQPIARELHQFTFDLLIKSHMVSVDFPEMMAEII
Details: unlabeled steroid at 10- and 100-fold excess over 5 nM [3H]dihydrotestosterone

C[C@]12CCC(=O)C=C1CC[C@@H]1[C@@H]2[C@@H](O)C[C@@]2(C)[C@H]1CC[C@]2(O)C(=O)CO [cortisol]
steroid specificity (relative affinity): low affinity
